Results on 19 compounds are retold here after US20240217959A1, “New (Homo)Piperidinyl Heterocycles as Sigma Ligands” (ACONDICIONAMIENTO TARRASENSE, priority 2021, published 2024).

The structures appear in SMILES notation.

The target of one assay is T1, human σ1 receptor (Homo sapiens, UniProt Q99720).
T1 construct: expressed in transfected cells; host or cells: HEK-293
Kind of assay: Human σ1 receptor radioligand assay ([3H](+)-pentazocine). The note with it: transfected HEK-293 membranes, 5 nM [3H](+)-pentazocine, 37° C. 120 minutes; read-out: Binding σ-1. The procedure: Transfected HEK-293 membranes (7 μg) were incubated with 5 nM of [^3H](+)-pentazocine in assay buffer containing Tris-HCl 50 mM at pH 8. NBS (non-specific binding) was measured by adding 10 μM haloperidol. The binding of the test compound was measured at either one concentration (% inhibition at 1 or 10 μM) or five different concentrations to determine affinity values (Ki). Plates were incubated at 37° C. for 120 minutes. After the incubation period, the reaction mix was then transferred to MultiScreen HTS, FC plates (Millipore), filtered and plates were washed 3 times with ice-cold 10 mM Tris-HCL (pH 7.4). Filters were dried and counted at approximately 40% efficiency in a MicroBeta scintillation counter (Perkin-Elmer) using EcoScint liquid scintillation cocktail.

The target of the next assay is T2, human σ2/TMEM97 receptor (Homo sapiens, UniProt Q5BJF2).
T2 construct: expressed in transfected cells; host or cells: HEK-293
Put plainly: Binding assay to human σ2/TMEM97 receptor ([3H]-DTG). The note with it: transfected HEK-293 membranes, 10 nM [3H]-DTG, 25° C. 120 minutes; read-out: Binding σ-2. The procedure:
Transfected HEK-293 membranes (15 μg) were incubated with 10 nM [^3H]-1,3-Di-o-tolylguanidine (DTG) in assay buffer containing Tris-HCl 50 mM at pH 8.0. NSB (non-specific binding) was measured by adding 10 μM haloperidol. The binding of the test compound was measured at either one concentration (% inhibition at 1 or 10 μM) or five different concentrations to determine affinity values (Ki). Plates were incubated at 25° C. for 120 minutes. After the incubation period, the reaction mix was transferred to MultiScreen HTS, FC plates (Millipore), filtered and washed 3 times with ice-cold 10 mM Tris-HCL (pH 8.0). Filters were dried and counted at approximately 40% efficiency in a MicroBeta scintillation counter (Perkin-Elmer) using EcoScint liquid scintillation cocktail.

T1 sequence (Q99720 whole entry): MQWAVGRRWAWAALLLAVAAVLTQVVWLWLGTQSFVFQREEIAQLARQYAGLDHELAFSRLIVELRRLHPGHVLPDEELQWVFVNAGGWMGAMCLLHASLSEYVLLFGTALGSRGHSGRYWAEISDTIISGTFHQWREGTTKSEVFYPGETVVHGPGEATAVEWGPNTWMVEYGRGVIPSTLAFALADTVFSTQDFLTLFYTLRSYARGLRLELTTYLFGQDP
T2 sequence (Q5BJF2 whole entry): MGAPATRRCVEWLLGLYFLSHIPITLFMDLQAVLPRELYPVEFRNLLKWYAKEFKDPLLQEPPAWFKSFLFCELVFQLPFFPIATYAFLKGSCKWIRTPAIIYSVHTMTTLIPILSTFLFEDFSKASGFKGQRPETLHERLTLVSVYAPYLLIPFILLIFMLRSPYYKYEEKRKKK

For the compound `CCc1ncc(-c2cc(C)no2)c(C2CCN(CC(=O)N3CCC(F)(F)CC3)CC2)n1` [Example 6, 1-(4,4-Difluoropiperidin-1-yl)-2-(4-(2-ethyl-5-(3-methylisoxazol-5-yl)pyrimidin-4-yl)piperidin-1-yl)ethanone], the values for the Ki at human σ1 receptor and on human σ2/TMEM97 receptor were 500 to 1000 nM and < 100 nM, respectively.

As for `CCc1ncc(-c2nccn2C)c(C2CCN(CC(=O)N3CCOCC3)CC2)n1` [Example 16, 2-(4-(2-Ethyl-5-(1-methyl-1H-imidazol-2-yl)pyrimidin-4-yl)piperidin-1-yl)-1-morpholinoethan-1-one], the Ki on human σ1 receptor was > 1000 nM; on human σ2/TMEM97 receptor, 500 to 1000 nM.

Consider `Cc1cc(-c2cnc(C3CC3)nc2C2CCN(CC(=O)N3CCOCC3)CC2)on1` [Example 1, 2-(4-(2-Cyclopropyl-5-(3-methylisoxazol-5-yl)pyrimidin-4-yl)piperidin-1-yl)-1-morpholinoethanone], for which the Ki at human σ1 receptor is 500 to 1000 nM; on human σ2/TMEM97 receptor, < 100 nM.

As for `CCc1ncc(-c2cc(C)no2)c(C2CCN(CC(=O)N3CCCCC3)CC2)n1` [Example 11, 2-(4-(2-Ethyl-5-(3-methylisoxazol-5-yl)pyrimidin-4-yl)piperidin-1-yl)-1-(piperidin-1-yl)ethan-1-one], the Ki on human σ1 receptor is 500 to 1000 nM; at human σ2/TMEM97 receptor, < 100 nM.

As for `Cc1cc(-c2cnc(C(C)C)nc2C2CCN(CC(=O)N3CCOCC3)CC2)on1` [Example 2, 2-(4-(2-Isopropyl-5-(3-methylisoxazol-5-yl)pyrimidin-4-yl)piperidin-1-yl)-1-morpholinoethanone], the Ki is > 1000 nM on human σ1 receptor and < 100 nM at human σ2/TMEM97 receptor.

As to `CCc1ncc(-c2cc(C)no2)c(C2CCN(CC(=O)N3CCCN(C)CC3)CC2)n1` [Example 7, 2-(4-(2-Ethyl-5-(3-methylisoxazol-5-yl)pyrimidin-4-yl)piperidin-1-yl)-1-(4-methyl-1,4-diazepan-1-yl)ethanone], the values for the Ki at human σ1 receptor and on human σ2/TMEM97 receptor were > 1000 nM and < 100 nM, respectively.

As for `CCc1ncc(-c2cc(C)no2)c(C2CCN(CCC(=O)N3CCOCC3)CC2)n1` [Example 9, 3-(4-(2-Ethyl-5-(3-methylisoxazol-5-yl)pyrimidin-4-yl)piperidin-1-yl)-1-morpholinopropan-1-one], the Ki on human σ1 receptor is > 1000 nM; on human σ2/TMEM97 receptor, < 100 nM.

Regarding `CCCc1ncc(-c2cc(C)no2)c(C2CCN(CC(=O)N3CCOCC3)CC2)n1` [Example 12, 2-(4-(5-(3-Methylisoxazol-5-yl)-2-propylpyrimidin-4-yl)piperidin-1-yl)-1-morpholinoethan-1-one], the figures for the Ki on human σ1 receptor and at human σ2/TMEM97 receptor were > 1000 nM and < 100 nM, respectively.

Turning to `CCc1ncc(-c2cc(C)no2)c(C2CCN(CC(=O)N3CCC4(CCOC4)CC3)CC2)n1` [Example 4, 2-(4-(2-Ethyl-5-(3-methylisoxazol-5-yl)pyrimidin-4-yl)piperidin-1-yl)-1-(2-oxa-8-azaspiro[4.5]decan-8-yl)ethanone], the Ki on human σ1 receptor is > 1000 nM; at human σ2/TMEM97 receptor, < 100 nM.

As for `CCc1ncc(-c2ccccn2)c(C2CCN(CC(=O)N3CCOCC3)CC2)n1` [Example 13, 2-(4-(2-Ethyl-5-(pyridin-2-yl)pyrimidin-4-yl)piperidin-1-yl)-1-morpholinoethan-1-one], the Ki on human σ1 receptor is > 1000 nM; at human σ2/TMEM97 receptor, 100 to 500 nM.

As for `CCc1ncc(-c2cc(C)no2)c([C@@H]2CCCN(CC(=O)N3CCOCC3)CC2)n1` [Example 17, (R)-2-(4-(2-Ethyl-5-(3-methylisoxazol-5-yl)pyrimidin-4-yl)azepan-1-yl)-1-morpholinoethan-1-one], the Ki at human σ1 receptor and on human σ2/TMEM97 receptor was 100 to 500 nM throughout.

On to `CCc1ncc(-c2cc(C)no2)c(C2CCN(CC(=O)N3CCCOCC3)CC2)n1` [Example 3, 2-(4-(2-Ethyl-5-(3-methylisoxazol-5-yl)pyrimidin-4-yl)piperidin-1-yl)-1-(1,4-oxazepan-4-yl)ethanone], for which the Ki was > 1000 nM on human σ1 receptor and < 100 nM at human σ2/TMEM97 receptor.

With `CCc1ncc(-c2ccncc2)c(C2CCN(CC(=O)N3CCOCC3)CC2)n1` [Example 15, 2-(4-(2-Ethyl-5-(pyridin-4-yl)pyrimidin-4-yl)piperidin-1-yl)-1-morpholinoethan-1-one], the Ki on human σ1 receptor and on human σ2/TMEM97 receptor was 500 to 1000 nM throughout.

With `CCc1ncc(-c2cccc(C)n2)c(C2CCN(CC(=O)N3CCOCC3)CC2)n1` [Example 14, 2-(4-(2-Ethyl-5-(6-methylpyridin-2-yl)pyrimidin-4-yl)piperidin-1-yl)-1-morpholinoethan-1-one], the Ki at human σ1 receptor was > 1000 nM; at human σ2/TMEM97 receptor, 100 to 500 nM.

For `Cc1cc(-c2cnc(C(F)(F)F)nc2C2CCN(CC(=O)N3CCOCC3)CC2)on1` [Example 8, 2-(4-(5-(3-Methylisoxazol-5-yl)-2-(trifluoromethyl)pyrimidin-4-yl)piperidin-1-yl)-1-morpholinoethanone], the figures for the Ki on human σ1 receptor and at human σ2/TMEM97 receptor were > 1000 nM and < 100 nM, respectively.

Regarding `CCc1ncc(-c2cc(C)no2)c(C2CCN(CC(=O)N3CCOCC3)CC2)n1` [Example 5, 2-(4-(2-Ethyl-5-(3-methylisoxazol-5-yl)pyrimidin-4-yl)piperidin-1-yl)-1-morpholinoethanone], the Ki at human σ1 receptor was > 1000 nM; on human σ2/TMEM97 receptor, < 100 nM.

Consider `CCc1ncc(-c2cc(C)no2)c([C@H]2CCCN(CC(=O)N3CCOCC3)CC2)n1` [Example 18, (S)-2-(4-(2-Ethyl-5-(3-methylisoxazol-5-yl)pyrimidin-4-yl)azepan-1-yl)-1-morpholinoethan-1-one], for which the figures for the Ki at human σ1 receptor and at human σ2/TMEM97 receptor were 500 to 1000 nM and < 100 nM, respectively.

For the compound `CCc1ncc(-c2cc(C)no2)c(C2CCN(CCN3CCOCC3)CC2)n1` [Example 10, 4-(2-(4-(2-Ethyl-5-(3-methylisoxazol-5-yl)pyrimidin-4-yl)piperidin-1-yl)ethyl)morpholine], the Ki at human σ1 receptor is 100 to 500 nM; on human σ2/TMEM97 receptor it was < 100 nM.

Consider `Cc1ccc(-c2ccnc(C)n2)c(C2CCN(CC(=O)N3CCOCC3)CC2)n1` [Example 19, 2-(4-(6-Methyl-3-(2-methylpyrimidin-4-yl)pyridin-2-yl)piperidin-1-yl)-1-morpholinoethan-1-one], for which the Ki at human σ1 receptor and at human σ2/TMEM97 receptor was 500 to 1000 nM throughout.
